# “Also recorded” adds a separate entry of the source. Where two headings read alike, the source gives them in different places.
# What was measured:
# U251 cells = system: U251 cells; parameters: method as in El-Awady et al., 2011; conditions: most sensitive of five cancer cell lines; ref El-Awady et al., 2011; cited from earlier work
# HeLa cells = system: HeLa cells; parameters: method as in El-Awady et al., 2011; conditions: most resistant of five cancer cell lines; ref El-Awady et al., 2011; cited from earlier work
# [1] = MTT cytotoxicity assay, HGF; format: cell-based, human; conditions: human, human gingival fibroblasts (HGF), normal oral cells, average of three determinations
# Description: (§2) The viable cell number was determined in triplicate by the MTT method, following the approach adopted in previous studies ([Nagai et al., 2018]; [Shi et al., 2018] ). Briefly, the cells were incubated for 2 h with 0.2 mg/mL of MTT, and the formed formazan was dissolved with 0.1 mL of DMSO to determine the relative viable cell number at 560 nm.
# (§3) Cells were inoculated at 2×10^3 cells/0.1 ml in a 96-microwell plate. […] Cells were incubated further for 48 h and the relative viable cell number was then determined by the MTT method and expressed as the absorbance of the cell lysate at 560 nm, using a microplate reader (Infinite F50R; TECAN, Männedorf, Switzerland) [49, 50]. Control cells were treated with the same amounts of DMSO and the cell damage induced by DMSO was subtracted from that induced by test agents. The concentration of compound that reduced the viable cell number by 50% (CC50) was determined from the dose–response curve and the mean value of CC50 for each cell type was calculated from triplicate assays.
# (§4) Human oral squamous cell carcinoma (OSCC) cell lines [Ca9-22 (derived from gingival tissue); and HSC-2, HSC-3, HSC-4 (derived from tongue)] were purchased from Riken Cell Bank (Tsukuba, Japan). All of these cells were cultured at 37°C in DMEM supplemented with 10% heat-inactivated fetal bovine serum, 100 units/ml, penicillin G and 100 µg/ml streptomycin sulfate under a humidified 5% CO2 atmosphere. Cell morphology was checked periodically under a light microscope (EVOS FL; Thermo Fisher Scientific, Waltham, MA, USA).
# [2] = system: human OSCC cell lines (Ca9-22, HSC-2, HSC-3, HSC-4); assay: MTT cytotoxicity, four OSCC cell lines together (mean, TS, PSE, type of growth inhibition); format: cell-based; conditions: for CC50: mean of Ca9-22, HSC-2, HSC-3, HSC-4, read-out: CC50 OSCC mean (B); for type of growth inhibition on the OSCC cell lines: from dose-response curves, Figure 4, cytostatic = without complete cytotoxicity, cytotoxic = complete cell death; for TS (D/B) tumor-selectivity index: mean CC50 normal cells / mean CC50 OSCC cell lines; for PSE (D/B^2)x100 potency-selectivity expression: three normal cell types vs four OSCC cell lines
# Description: TS was calculated using the following equation: TS=mean CC50 against three normal oral cell types/mean CC50 against four OSCC cell lines (HGF, HPLF, HPC vs. Ca9-22, HSC-2, HSC-3, HSC-4). Since both Ca9-22 and HGF cells were derived from the gingival tissue, the relative sensitivity of these cells was also compared (as: CC50 against HGF/ CC50 against Ca9-22).
# PSE was calculated by the following equation: PSE=mean CC50 against three normal oral cell types/(CC50 against four OSCC cell lines)2 × 100 (HGF, HPLF, HPC vs. Ca9-22, HSC-2, HSC-3, HSC-4); and as CC50 against HGF/(CC50 against Ca9-22)2 × 100 using the pair of cell types from the same tissue (gingiva) (see Table 1).
# (§1) Estimation of CC50 values. […] The mean pCC50 values for normal cells and tumor cell lines were defined as N and T, respectively.
# [3] = MTT cytotoxicity assay, HPLF; format: cell-based, human; conditions: female, human, normal oral cells, average of three determinations
# Description: as §2, §3
# (§5) All of these cells were cultured at 37°C in DMEM supplemented with 10% heat-inactivated fetal bovine serum, 100 units/ml, penicillin G and 100 µg/ml streptomycin sulfate under a humidified 5% CO2 atmosphere.
# [4] = system: Ca9-22 cells (OSCC, gingival tissue); assay: MTT cytotoxicity assay, Ca9-22; format: cell-based, human; conditions: for TS (C/A) tumor-selectivity index: CC50 HGF / CC50 Ca9-22 (both gingival); for CC50: OSCC, 48 h, MTT, average of three determinations; for PSE (C/A^2)x100 potency-selectivity expression: HGF vs Ca9-22 (both gingival)
# Description: as §2, §3, §4
# [5] = system: HSC-2 cells (OSCC, tongue); assay: MTT cytotoxicity assay, HSC-2; conditions: for CC50: read-out: CC50 HSC-2; for relative cytotoxicity against HSC-2: from CC50 values 1.1, 2.8, 3.6 μM
# Description: as §2, §3, §4
# [6] = MTT cytotoxicity assay, HPC; format: cell-based, human; conditions: female, human, human pulp cells (HPC), normal oral cells, average of three determinations
# Description: as §2, §3, §5
# [7] = system: HSC-4 cells (OSCC, tongue); assay: MTT cytotoxicity assay, HSC-4; format: cell-based, human; conditions: average of three determinations
# Description: as §2, §3, §4
# [8] = system: HSC-3 cells (OSCC, tongue); assay: MTT cytotoxicity assay, HSC-3; format: cell-based, human; conditions: for CC50: OSCC, 48 h, MTT, average of three determinations; for increase of cytotoxicity against HSC-3 compared to MS4: relative to unsubstituted phenyl derivative MS4
# Description: as §2, §3, §4
# HSC-2 cells = assay: Cell-cycle analysis (propidium iodide, cell sorting); format: cell-based, human; conditions: HSC-2, 24 h; for subG1 cell population: control 1.9 %; for share of S-phase cells: control 15.6%; for share of G2+M phase cells: control 20.5%
# Description: Cell-cycle analysis was performed following the process described in the literature ([Kantoh et al., 2010]; [Nagai et al., 2018]; [Shi et al., 2018]), details of which are presented in a supplementary file. Briefly, cells (approximately 10^6 in number) were fixed with paraformaldehyde in PBS(−) and treated with RNase A. After staining with propidium iodide in the presence of 0.01% Nonidet-40 to prevent cell aggregation, the cells were filtered through Falcon cell strainers and then subjected to cell sorting, analyzed with Cell Sorter Software (version 2.1.2) (SONY Imaging Products and Solution Inc., Kanagawa, Japan).
# HSC-2 cells were incubated for 24 h with actinomycin D (Act.D) (positive control of apoptosis induction) or MS4, 7, or 8, or without treatment (control), and subjected to cell cycle analysis. […] D (1 μM) (p < 0.05) from 1.9 % to 12.5%. […] The cell cycle analysis was performed only with HSC-2 cells; therefore, experiments with other OSCC cell lines should be conducted to support the generalization of our findings.
# Treated and untreated cells (approximately 10^6 cells) were harvested, fixed with 1% paraformaldehyde in PBS without calcium and magnesium ions [PBS(−)]. Fixed cells were then washed twice with PBS(−) and treated for 30 min with 400 μl of 0.2 mg/ml RNase A (preheated for 10 min at 100 °C to inactivate DNase) to degrade RNA. Cells were then washed twice with PBS(−) and stained for 15 min with 0.01% propidium iodide (PI) in the presence of 0.01% NP-40 in PBS(−) to prevent cell aggregation. After filtering through Falcon® cell strainers ([…]) (Corning, NY, USA) to remove aggregated cells, PI-stained cells were subjected to cell sorting (SH800 Series; SONY Imaging Products and Solutions Inc., Kanagawa, Japan). Cell-cycle analysis was performed with Cell Sorter Software version 2.1.2. (SONY Imaging Products and Solution Inc.).
# [9] = MTT cytotoxicity, three normal oral cell types together (mean); format: cell-based, human; conditions: female, human; mean of HGF, HPLF, HPC; read-out: CC50 normal oral cells mean (D)
# Description: as §1
# [10] = system: gingival fibroblast (HGF), normal oral cells; assay: MTT cytotoxicity assay, HGF; format: cell-based, human; conditions: 48 h, average of three determinations
# Description: as §2, §3, §4
# [11] = system: periodontal ligament fibroblast (HPLF), normal oral cells; assay: MTT cytotoxicity assay, HPLF; format: cell-based, human; conditions: 48 h, average of three determinations
# Description: as §2, §3, §5
# [12] = system: pulp cells (HPC), normal oral cells; assay: MTT cytotoxicity assay, HPC; format: cell-based, human; conditions: 48 h, average of three determinations
# Description: as §2, §3, §5
# [13] = system: human normal oral cells (HGF, HPLF, HPC); assay: MTT cytotoxicity, three normal oral cell types together (mean); format: cell-based; conditions: mean of HGF, read-out: CC50 normal oral cells mean (D)
# Description: as §1
Compound,CC50 at 48 h [1],CC50 ([2]; Homo sapiens),type of growth inhibition on the OSCC cell lines [2],TS (D/B) tumor-selectivity index [2],PSE (D/B^2)x100 potency-selectivity expression [2],CC50 at 48 h [3],TS (C/A) tumor-selectivity index [4],"CC50 ([4]; Homo sapiens, Ca9-22)","CC50 ([5]; Homo sapiens, HSC-2, 48 h)",relative cytotoxicity against HSC-2 [5],CC50 at 48 h [6],"CC50 ([7]; Homo sapiens, HSC-4, 48 h)","CC50 ([8]; Homo sapiens, HSC-3)",increase of cytotoxicity against HSC-3 compared to MS4 [8],effect on cell cycle distribution (HSC-2 cells),share of S-phase cells (HSC-2 cells; concentration not given),share of G2+M phase cells (HSC-2 cells; concentration not given),CC50 at 48 h [9],PSE (C/A^2)x100 potency-selectivity expression [4],other results
Cc1ccc(-c2cc(C(F)(F)F)nn2-c2ccc(S(N)(=O)=O)cc2)cc1 [celecoxib],–,–,–,–,–,–,–,–,–,–,–,–,–,–,–,–,–,–,–,IC50 (U251 cells): 11.7 µM; IC50 (HeLa cells): 37.2 µM
"COc1cc(OC)c(C(=O)/C=C/c2cn(-c3ccc(S(N)(=O)=O)cc3)nc2-c2ccccc2)cc1OC [MS7, (E)-4-(4-(3-Oxo-3-(2,4,5-trimethoxyphenyl)prop-1-en-1-yl)-3-phenyl-1H-pyrazol-1-yl)benzenesulfonamide]",> 400 µM,2.7 µM,cytotoxic effects; also recorded: cytotoxic growth inhibition,>148.7,> 5531,> 400 µM,>247.4,1.6 µM,2.8 µM,1.3 fold,> 400 µM,3 µM,3.3 µM,1.5–2 times,increased the cell population in the S and G2/M phases,20.6%,35.0%,> 400 µM,–,"times more cytotoxic towards Ca9-22 than 5-FU ([4]; relative to reference compound 5-FU): 20.6 times; subG1 cell population (HSC-2 cells; 5.6 μM): 1.0%; subG1 cell population (HSC-2 cells; 11.2 μM): 1.3%; G1 phase cells (HSC-2 cells; control 63.2%, concentration not given): 44.5%; effect on cell cycle distribution (HSC-2 cells; listed as 7): induced G2+M arrest"
"COc1cc(C(=O)/C=C/c2cn(-c3ccc(S(N)(=O)=O)cc3)nc2-c2ccccc2)cc(OC)c1OC [MS8, (E)-4-(4-(3-Oxo-3-(3,4,5-trimethoxyphenyl)prop-1-en-1-yl)-3-phenyl-1H-pyrazol-1-yl)benzenesulfonamide]",> 400 µM,3.3 µM,cytotoxic effects; also recorded: cytotoxic growth inhibition,>113.5,> 3389,340 µM,>169.0,2.4 µM,3.6 µM,–,> 400 µM,3.5 µM,4 µM,1.5–2 times,increased the cell population in the S and G2/M phases,21.2%,35.4%,> 380 µM,> 7141,subG1 cell population (HSC-2 cells; 7.2 μM): 1.3%; effect on cell cycle distribution (HSC-2 cells; listed as 8): induced G2+M arrest
"NS(=O)(=O)c1ccc(-n2cc(/C=C/C(=O)c3ccccc3)c(-c3ccccc3)n2)cc1 [MS4, (E)-4-(4-(3-Oxo-3-phenylprop-1-en-1-yl)-3-phenyl-1H-pyrazol-1 yl) benzenesulfonamide]",–,–,cytostatic effects; also recorded: cytostatic growth inhibition,>103.7,> 2800,–,71.2,–,–,3.3 fold,–,–,–,–,increased the cell population in the S and G2/M phases; also recorded: only slightly induced such changes in cell cycle distribution; also recorded: induced G2+M arrest,–,–,–,> 1444,"CC50 [10]: 351 µM; CC50 [2]: 3.7 µM; CC50 [11]: > 400 µM; CC50 [4]: 4.9 µM; CC50 ([5]; OSCC, 48 h, MTT, average of three determinations): 1.1 µM; CC50 [12]: > 400 µM; CC50 ([7]; 48 h): 3.5 µM; CC50 [8]: 5.2 µM; subG1 cell population (HSC-2 cells; 2.2 μM): 2.0%; CC50 [13]: > 384 µM"

# From PMC12604929, “Tumor-specific cytotoxicity of pyrazole-based chalcone derivatives in human oral squamous cell carcinoma cell lines” (Turkish Journal of Biology, 2025)
